In patent US5916904A, “Antimicrobial agent” (Eisai Co., Ltd., priority 1992, dated 1999):
Converted amounts (≈) assume the structure as drawn.

What was measured:
[1] = test system: C. pylori EI-925; test: MIC by agar dilution method, C. pylori clinical isolate EI-925; assay type: cell-based; settings: Helicobacter pylori, EI925, 72 h; EI-925, clinical isolate; in vitro, 37° C., pH 7.0, 3 days, microaerophilic; read-out: antibiotic activity (MIC)
[2] = test system: C. pylori NCTC11637; test: MIC by agar dilution method, C. pylori standard strain NCTC11637; assay type: cell-based; settings: Helicobacter pylori, 72 h, in vitro, 37° C., pH 7.0, 3 days, microaerophilic, read-out: antibiotic activity (MIC)
[3] = test system: C. pylori EI-36; test: MIC by agar dilution method, C. pylori clinical isolate EI-36; assay type: cell-based; settings: Helicobacter pylori, EI36, 72 h; EI-36, clinical isolate; in vitro, 37° C., pH 7.0, 3 days, microaerophilic; read-out: antibiotic activity (MIC)
[4] = test system: C. pylori EI-393; test: MIC by agar dilution method, C. pylori clinical isolate EI-393; assay type: cell-based; settings: Helicobacter pylori, EI393, 72 h; EI-393, clinical isolate; in vitro, 37° C., pH 7.0, 3 days, microaerophilic; read-out: antibiotic activity (MIC)
[5] = test system: C. pylori EI-930; test: MIC by agar dilution method, C. pylori clinical isolate EI-930; assay type: cell-based; settings: Helicobacter pylori, EI930, 72 h; EI-930, clinical isolate; in vitro, 37° C., pH 7.0, 3 days, microaerophilic; read-out: antibiotic activity (MIC)
[6] = test system: C. pylori EI-391; test: MIC by agar dilution method, C. pylori clinical isolate EI-391; assay type: cell-based; settings: Helicobacter pylori, EI391, 72 h; EI-391, clinical isolate (resistant); in vitro, 37° C., pH 7.0, 3 days, microaerophilic; read-out: antibiotic activity (MIC)
[7] = test system: C. pylori EI-5; test: MIC by agar dilution method, C. pylori clinical isolate EI-5; assay type: cell-based; settings: Helicobacter pylori, EI5, 72 h; EI-5, clinical isolate; in vitro, 37° C., pH 7.0, 3 days, microaerophilic; read-out: antibiotic activity (MIC)
[8] = test system: C. pylori EI-46; test: MIC by agar dilution method, C. pylori clinical isolate EI-46; assay type: cell-based; settings: Helicobacter pylori, EI46, 72 h; EI-46, clinical isolate (resistant); in vitro, 37° C., pH 7.0, 3 days, microaerophilic; read-out: antibiotic activity (MIC)
[9] = test system: C. pylori EI-2; test: MIC by agar dilution method, C. pylori clinical isolate EI-2; assay type: cell-based; settings: Helicobacter pylori, EI2, 72 h; EI-2, clinical isolate; in vitro, 37° C., pH 7.0, 3 days, microaerophilic; read-out: antibiotic activity (MIC)
[10] = test system: C. pylori EI-612; test: MIC by agar dilution method, C. pylori clinical isolate EI-612; assay type: cell-based; settings: Helicobacter pylori, EI612, 72 h; EI-612, clinical isolate; in vitro, 37° C., pH 7.0, 3 days, microaerophilic; read-out: antibiotic activity (MIC)
[11] = test system: C. pylori NCTC11916; test: MIC by agar dilution method, C. pylori standard strain NCTC11916; assay type: cell-based; settings: Helicobacter pylori, 72 h, in vitro, 37° C., pH 7.0, 3 days, microaerophilic, read-out: antibiotic activity (MIC)
[12] = test system: C. pylori EI-397; test: MIC by agar dilution method, C. pylori clinical isolate EI-397; assay type: cell-based; settings: Helicobacter pylori, EI397, 72 h; EI-397, clinical isolate; in vitro, 37° C., pH 7.0, 3 days, microaerophilic; read-out: antibiotic activity (MIC)
[13] = test system: C. pylori EI-467; test: MIC by agar dilution method, C. pylori clinical isolate EI-467; assay type: cell-based; settings: Helicobacter pylori, EI467, 72 h; EI-467, clinical isolate; in vitro, 37° C., pH 7.0, 3 days, microaerophilic; read-out: antibiotic activity (MIC)
[14] = test system: C. pylori EI-933; test: MIC by agar dilution method, C. pylori clinical isolate EI-933; assay type: cell-based; settings: Helicobacter pylori, EI933, 72 h; EI-933, clinical isolate; in vitro, 37° C., pH 7.0, 3 days, microaerophilic; read-out: antibiotic activity (MIC)
[15] = test system: C. pylori EI-429; test: MIC by agar dilution method, C. pylori clinical isolate EI-429; assay type: cell-based; settings: Helicobacter pylori, EI429, 72 h; EI-429, clinical isolate; in vitro, 37° C., pH 7.0, 3 days, microaerophilic; read-out: antibiotic activity (MIC)
[16] = Acute Toxicological Test in rats; settings: rat, in vivo, one time
Description: (§1) The compound (I) of the invention was administered Intravenously or orally one time, with a carrier of saline, to Slc:SD rats and Slc:ICR mouse, each being 7 or 8 weeks old, in a group consisting of five males and five females, to determine LD50 values.
(§2) Acute toxicity of the compound (I) is shown in terms of LD50 in unit of mg/kg.

[17] = test system: C. pylori; test: antibiotic activity against C. pylori, overall conclusion; assay type: cell-based; settings: compared with antibiotic substances / known compounds
[18] = Acute Toxicological Test in mice; settings: mouse, in vivo, one time
Description: as §1, §2

COc1ccc2[nH]c(SCc3ncc(C)c(OC)c3C)nc2c1 [(IV), 5-Methoxy-2-{(4-methoxy-3,5-dimethyl-2-pyridinyl)methylthio}-1H-benzimidazole]
MIC [1]: 12.5 µg/mL (≈ 37.9 µM) | MIC [2]: 25 µg/mL (≈ 75.9 µM) | MIC [3]: 12.5 µg/mL (≈ 37.9 µM) | MIC [4]: 25 µg/mL (≈ 75.9 µM) | MIC [5]: 12.5 µg/mL (≈ 37.9 µM) | MIC [6]: 25 µg/mL (≈ 75.9 µM) | MIC [7]: 25 µg/mL (≈ 75.9 µM) | MIC [8]: 12.5 µg/mL (≈ 37.9 µM) | MIC [9]: 25 µg/mL (≈ 75.9 µM) | MIC [10]: 12.5 µg/mL (≈ 37.9 µM) | MIC [11]: 12.5 µg/mL (≈ 37.9 µM) | MIC [12]: 25 µg/mL (≈ 75.9 µM) | MIC [13]: 12.5 µg/mL (≈ 37.9 µM) | MIC [14]: 12.5 µg/mL (≈ 37.9 µM) | MIC [15]: 25 µg/mL (≈ 75.9 µM)

COCCCOc1ccnc(C[S+]([O-])c2nc3ccccc3[nH]2)c1C (stereo not shown) [(I), 2-[(4-(3-Methoxypropoxy)-3-methylpyridine-2-yl)-methylsulfinyl]-1H-benzimidazole]
MIC [1]: 3.13 µg/mL (≈ 8.71 µM) | MIC [2]: 3.13 µg/mL (≈ 8.71 µM) | MIC [3]: 6.25 µg/mL (≈ 17.4 µM) | MIC [4]: 3.13 µg/mL (≈ 8.71 µM) | MIC [5]: 3.13 µg/mL (≈ 8.71 µM) | MIC [6]: 3.13 µg/mL (≈ 8.71 µM) | MIC [7]: 3.13 µg/mL (≈ 8.71 µM) | LD50 ([16]; iv, female): 152 mg/kg | LD50 ([16]; iv, male): 157 mg/kg | LD50 ([16]; po, female): 1330 mg/kg | LD50 ([16]; po, male): 1450 mg/kg | MIC [8]: 3.13 µg/mL (≈ 8.71 µM) | MIC [9]: 3.13 µg/mL (≈ 8.71 µM) | MIC [10]: 0.4 µg/mL (≈ 1.11 µM) | MIC [11]: 3.13 µg/mL (≈ 8.71 µM) | MIC [12]: 3.13 µg/mL (≈ 8.71 µM) | MIC [13]: 1.56 µg/mL (≈ 4.34 µM) | C. pylori-eradicating activity [17]: the same C. pylori-eradicating activity as an antibiotic substance | MIC [14]: 3.13 µg/mL (≈ 8.71 µM) | LD50 ([18]; iv, female): 237 mg/kg | LD50 ([18]; iv, male): 220 mg/kg | LD50 ([18]; po, female): 1010 mg/kg | LD50 ([18]; po, male): 1210 mg/kg | MIC [15]: 1.56 µg/mL (≈ 4.34 µM)

Cc1c(OCC(F)(F)F)ccnc1CSc1nc2ccccc2[nH]1 [(V), 2-[{3-Methyl-4-(2,2,2-trifluoroethoxy)pyrid-2-yl}methylthio]-1H-benzimidazole]
MIC [1]: 12.5 µg/mL (≈ 35.4 µM) | MIC [2]: 25 µg/mL (≈ 70.7 µM) | MIC [3]: 12.5 µg/mL (≈ 35.4 µM) | MIC [4]: 25 µg/mL (≈ 70.7 µM) | MIC [5]: 12.5 µg/mL (≈ 35.4 µM) | MIC [6]: 12.5 µg/mL (≈ 35.4 µM) | MIC [7]: 12.5 µg/mL (≈ 35.4 µM) | MIC [8]: 12.5 µg/mL (≈ 35.4 µM) | MIC [9]: 25 µg/mL (≈ 70.7 µM) | MIC [10]: 6.25 µg/mL (≈ 17.7 µM) | MIC [11]: 12.5 µg/mL (≈ 35.4 µM) | MIC [12]: 25 µg/mL (≈ 70.7 µM) | MIC [13]: 12.5 µg/mL (≈ 35.4 µM) | MIC [14]: 12.5 µg/mL (≈ 35.4 µM) | MIC [15]: 25 µg/mL (≈ 70.7 µM)

CC1(C)S[C@@H]2[C@H](NC(=O)[C@H](N)c3ccccc3)C(=O)N2[C@H]1C(=O)O [(VII), ampicillin]
MIC [1]: 0.2 µg/mL (≈ 0.572 µM) | MIC [2]: 0.4 µg/mL (≈ 1.14 µM) | MIC [3]: 0.2 µg/mL (≈ 0.572 µM) | MIC [4]: 0.1 µg/mL (≈ 0.286 µM) | MIC [5]: 0.4 µg/mL (≈ 1.14 µM) | MIC [6]: 0.1 µg/mL (≈ 0.286 µM) | MIC [7]: 0.4 µg/mL (≈ 1.14 µM) | MIC [8]: 0.05 µg/mL (≈ 0.143 µM) | MIC [9]: 0.4 µg/mL (≈ 1.14 µM) | MIC [10]: 0.05 µg/mL (≈ 0.143 µM) | MIC [11]: 0.05 µg/mL (≈ 0.143 µM) | MIC [12]: 0.1 µg/mL (≈ 0.286 µM) | MIC [13]: 0.05 µg/mL (≈ 0.143 µM) | MIC [14]: 0.05 µg/mL (≈ 0.143 µM) | MIC [15]: 0.2 µg/mL (≈ 0.572 µM)

COCCCOc1ccnc(CSc2nc3ccccc3[nH]2)c1C [(II), 2-[(4-(3-Methoxypropoxy)-3-methylpyridine-2-yl)-methylthio]-1H-benzimidazole]
MIC [1]: 0.4 µg/mL (≈ 1.16 µM) | MIC [2]: 0.8 µg/mL (≈ 2.33 µM) | MIC [3]: 0.4 µg/mL (≈ 1.16 µM) | MIC [4]: 1.56 µg/mL (≈ 4.54 µM) | MIC [5]: 0.4 µg/mL (≈ 1.16 µM) | MIC [6]: 1.56 µg/mL (≈ 4.54 µM) | MIC [7]: 0.2 µg/mL (≈ 0.582 µM) | MIC [8]: 0.4 µg/mL (≈ 1.16 µM) | MIC [9]: 0.4 µg/mL (≈ 1.16 µM) | MIC [10]: 0.8 µg/mL (≈ 2.33 µM) | MIC [11]: 0.2 µg/mL (≈ 0.582 µM) | MIC [12]: 1.56 µg/mL (≈ 4.54 µM) | MIC [13]: 1.56 µg/mL (≈ 4.54 µM) | C. pylori-eradicating activity [17]: the same C. pylori-eradicating activity as an antibiotic substance | MIC [14]: 0.8 µg/mL (≈ 2.33 µM) | MIC [15]: 1.56 µg/mL (≈ 4.54 µM)

CC[C@H]1OC(=O)[C@H](C)[C@@H](O[C@H]2C[C@@](C)(OC)[C@@H](O)[C@H](C)O2)[C@H](C)[C@@H](O[C@@H]2O[C@H](C)C[C@H](N(C)C)[C@H]2O)[C@](C)(O)C[C@@H](C)/C(=N\OCOCCOC)[C@H](C)[C@@H](O)[C@]1(C)O [(VI), roxithromycin]
MIC [1]: 0.2 µg/mL (≈ 0.239 µM) | MIC [2]: 0.4 µg/mL (≈ 0.478 µM) | MIC [3]: 0.2 µg/mL (≈ 0.239 µM) | MIC [4]: 0.2 µg/mL (≈ 0.239 µM) | MIC [5]: 0.4 µg/mL (≈ 0.478 µM) | MIC [6]: 50 µg/mL (≈ 59.7 µM) | MIC [7]: 0.2 µg/mL (≈ 0.239 µM) | MIC [8]: > 100 µg/mL | MIC [9]: 0.2 µg/mL (≈ 0.239 µM) | MIC [10]: 0.2 µg/mL (≈ 0.239 µM) | MIC [11]: 0.1 µg/mL (≈ 0.119 µM) | MIC [12]: 0.2 µg/mL (≈ 0.239 µM) | MIC [13]: 0.2 µg/mL (≈ 0.239 µM) | MIC [14]: 0.1 µg/mL (≈ 0.119 µM) | MIC [15]: 0.2 µg/mL (≈ 0.239 µM)
